Assay: Solubility of flame retardant in styrene
Assay type: physicochemical

| Solubility (at 40° C.) [wt %] | Compound | Solubility (at 25° C.) [wt %] |
| --- | --- | --- |
| – | CN1C(=O)C2CC(Br)C(Br)CC2C1=O (stereo not drawn) [III] | >5 |
| >1 | O=C1NC(=O)C2CC(Br)C(Br)CC12 (stereo not drawn) [II] | – |
| – | O=C1C2C3CC(C(Br)C3Br)C2C(=O)N1CCN1C(=O)C2C3CC(C(Br)C3Br)C2C1=O (stereo not drawn) [BN-451, reference compound] | <0.1 |
